Values after ≈ are worked out from the molar mass of the structure shown.
How the values were obtained:
α-glucosidase [1] = test: SDS-PAGE electrophoretic α-glucosidase pattern; format: biochemical; conditions: 100 µg/mL
Description: (§1) The relative mobility (Rf), band quantity (Qty) and band percent (B%) of the electrophoretically detected isoenzyme types on the PAGE plate were determined using the Quantity One software program (version 4.6.2). The equation proposed by Nei and Li[39] was used to calculate the percentages of similarity index (SI%) and physiological difference (Diff%).

[2] = Total antioxidant capacity (TAC), method of Prieto et al.
Description: (§2) All in vitro biological activities of the limonoids-rich extract and the isolated compounds were assayed in triplicate at three different concentrations (50, 100, and 200 µg/mL).
The method proposed by Prieto et al.[30] was used to determine the total antioxidant capacity (TAC) expressed as mg […] equivalent per gram weight, using ascorbic acid at the same concentrations as a standard.

[3] = Nitric oxide (NO) radical scavenging activity (Griess Illosvory reagent)
Description: as §2
The nitric oxide (NO) radical scavenging activity was estimated by the reaction with Griess Illosvory reagent based on the method proposed by Chakraborthy[34]. The NO scavenging capacities of the samples were compared with that of ascorbic acid. The percent inhibition of the NO radical was calculated. The IC50 of each tested sample was determined by plotting a curve using a series of sample concentrations against the percent of NO inhibition.

α-amylase [4] = test: Native electrophoretic α-amylase isoenzyme pattern (PAGE); format: biochemical; conditions: standard enzyme treated with 100 µg/mL
Description: as §1

[5] = Iron reducing power (IRP), method of Oyaizu
[6] = DPPH radical scavenging activity
Description: as §2
The 1,1-Diphenyl-2-picryl-hydrazyl (DPPH) radical scavenging activity was evaluated using the method described by Rahman et al.[32]. Ascorbic acid was used as a positive control at the same concentrations. The inhibition percentage of the DPPH free radical was calculated. The median inhibitory concentration (IC50) of each tested sample was determined by plotting a curve using a series of sample concentrations against the percentage of DPPH inhibition.

α-amylase [7] = test: α-Amylase enzyme inhibition assay; format: biochemical
Description: as §2
(§3) The IC50 of each tested sample was determined by plotting a curve using a series of sample concentrations against the percent of enzyme inhibition.

[8] = ABTS radical scavenging assay
Description: as §2
The ABTS scavenging capacities of the samples were compared with that of ascorbic acid. The percent inhibition of the ABTS radical was calculated. The IC50 of each tested sample was determined by plotting a curve using a series of sample concentrations against the percent of ABTS inhibition.

α-glucosidase [9] = test: α-Glucosidase enzyme inhibition assay; format: biochemical
Description: as §2, §3

CC1(C)OC(=O)C[C@H](O)[C@]2(C)[C@H]3CC[C@@]4(C)[C@H](c5ccoc5)OC(=O)[C@H]5O[C@]54[C@]3(C)C(=O)C[C@@H]12 [Cpd2, deacetylnomilin]
Diff% (decrease in the quantity of the identified α-glucosidase band) (α-glucosidase [1]): 40.64%
Qty (band quantity) of the α-glucosidase band (α-glucosidase [1]): 11.08
TAC ([2]; sample concentration 50 µg/mL): 21.74 ± 0.06 mg gallic acid/g
TAC ([2]; sample concentration 100 µg/mL): 38.70 ± 0.10 mg gallic acid/g
TAC ([2]; sample concentration 200 µg/mL): 68.88 ± 0.19 mg gallic acid/g
IC50 against NO radical ([3]; Fig. 2a): 7.65 ± 0.04 µg/mL (≈ 16.2 µM)
NO Inhibition (%) ([3]; sample concentration 50 µg/mL): 13.75 ± 0.05%
NO Inhibition (%) ([3]; sample concentration 100 µg/mL): 24.48 ± 0.09%
NO Inhibition (%) ([3]; sample concentration 200 µg/mL): 43.58 ± 0.16%
Change in electrophoretic α-amylase isoenzyme pattern (α-amylase [4]): slight changes
Diff% (physiological difference) of electrophoretic α-amylase pattern from the standard enzyme (α-amylase [4]): 33.33%
SI% (similarity index) of electrophoretic α-amylase pattern to the standard enzyme (α-amylase [4]): 66.67%
IRP ([5]; sample concentration 50 µg/mL): 16.59 ± 0.06 µg/mL
IRP ([5]; sample concentration 100 µg/mL): 29.53 ± 0.10 µg/mL
IRP ([5]; sample concentration 200 µg/mL): 52.56 ± 0.19 µg/mL
IC50 against DPPH radical ([6]; Fig. 2a): 6.40 ± 0.02 µg/mL (≈ 13.5 µM)
DPPH Inhibition (%) ([6]; sample concentration 50 µg/mL): 18.90 ± 0.05%
DPPH Inhibition (%) ([6]; sample concentration 100 µg/mL): 33.65 ± 0.09%
DPPH Inhibition (%) ([6]; sample concentration 200 µg/mL): 59.90 ± 0.16%
melting point: 254 °C
IC50 against α-amylase (α-amylase [7]; Fig. 2b): 5.07 ± 0.03 µg/mL (≈ 10.7 µM)
α-Amylase Inhibition (%) (α-amylase [7]; sample concentration 50 µg/mL): 13.49 ± 0.06%
α-Amylase Inhibition (%) (α-amylase [7]; sample concentration 100 µg/mL): 24.01 ± 0.10%
α-Amylase Inhibition (%) (α-amylase [7]; sample concentration 200 µg/mL): 42.74 ± 0.19%
IC50 against ABTS radical ([8]; Fig. 2a): 6.02 ± 0.03 µg/mL (≈ 12.7 µM)
ABTS Inhibition (%) ([8]; sample concentration 50 µg/mL): 16.59 ± 0.06%
ABTS Inhibition (%) ([8]; sample concentration 100 µg/mL): 29.53 ± 0.10%
ABTS Inhibition (%) ([8]; sample concentration 200 µg/mL): 52.56 ± 0.19%
IC50 against α-glucosidase (α-glucosidase [9]; Fig. 2b): 3.89 ± 0.03 µg/mL (≈ 8.23 µM)
α-Glucosidase Inhibition (%) (α-glucosidase [9]; sample concentration 50 µg/mL): 9.34 ± 0.06%
α-Glucosidase Inhibition (%) (α-glucosidase [9]; sample concentration 100 µg/mL): 16.63 ± 0.10%
α-Glucosidase Inhibition (%) (α-glucosidase [9]; sample concentration 200 µg/mL): 29.59 ± 0.19%
